Experiment in all cases: relative viability (nuclei count vs DMSO), 5 days (fraction); higher = more cells survive
Compound in experiment [1]: Cn1cc(-c2cnc3ccc4ccc(CS(=O)(=O)NCc5ccccn5)cc4c(=O)c3c2)cn1 [MK-8033] + CC(C)C[C@H](NC(=O)[C@H](Cc1ccccc1)NC(=O)c1cnccn1)B(O)O [Bortezomib] (partner 0.002 µM)
Summed up:
(§1)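 Cells from lung cancer lines were seeded into 1536-well plates and, one day later, dosed by pin tool. Treatments were either a single drug or a fixed dose of an anchor drug with five library-drug doses (not always all listed) in √10 steps. After 5 days, nuclei were stained in a one-step fixation (final 0.05% Triton X-100, 1% formaldehyde, 1 ug/ml Hoechst) and counted on 4× images, and relative viability is the treated-to-vehicle nuclei ratio, as the median of duplicate plates.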

Compound in experiment [2]: CCc1c2c(nc3ccc(OC(=O)N4CCC(N5CCCCC5)CC4)cc13)-c1cc3c(c(=O)n1C2)COC(=O)[C@]3(O)CC [Irinotecan] + O=C(CCCCCCC(=O)Nc1ccccc1)NO [Vorinostat] (partner 1 µM)
In a few lines: as §1

Compound in experiment [3]: CCc1c2c(nc3ccc(OC(=O)N4CCC(N5CCCCC5)CC4)cc13)-c1cc3c(c(=O)n1C2)COC(=O)[C@]3(O)CC [Irinotecan] + Nc1ncn([C@H]2C[C@H](O)[C@@H](CO)O2)c(=O)n1 [Decitabine] (partner 2 µM)
Summed up:
as §1

Compound in experiment [4]: CC[C@@H](C)CNCC(=O)N1CCC2=C([C@@H]1COC3=CC=CC(=C3)C)C=CS2 [RU-SKI 43] + CCNC(=O)c1noc(-c2cc(C(C)C)c(O)cc2O)c1-c1ccc(CN2CCOCC2)cc1 [Luminespib] (partner 0.01 µM)
Summed up: as §1

These results are taken from the supplement of paper PMC10307832.

In the case of LXF-289, the relative viability in experiment [1] (first compound 0.02 µM) amounted to 0.989; in experiment [1] (first compound 0.06325 µM), 0.964; in experiment [1] (first compound 0.2 µM) it was 0.985; in experiment [1] (first compound 0.6325 µM) it was 0.999; in experiment [1] (first compound 2 µM), 0.978; in experiment [2] (first compound 0.6325 µM) it was 0.724. Further, the relative viability in experiment [2] (first compound 2 µM) is 0.688; in experiment [2] (first compound 6.325 µM), 0.41; in experiment [2] (first compound 20 µM) it was 0.195; in experiment [3] (first compound 0.6325 µM) it was 0.351; in experiment [3] (first compound 2 µM) it was 0.218; in experiment [3] (first compound 6.325 µM), 0.162. The relative viability in experiment [3] (first compound 20 µM) amounted to 0.165; in experiment [4] (first compound 0.1 µM) it was 0.729; in experiment [4] (first compound 0.3162 µM), 0.853; in experiment [4] (first compound 1 µM), 0.852; in experiment [4] (first compound 3.162 µM), 0.751; in experiment [4] (first compound 10 µM) it was 0.568.

NCI-H23: the relative viability in experiment [1] (first compound 0.02 µM) was 0.959; in experiment [1] (first compound 0.06325 µM), 0.712; in experiment [1] (first compound 0.2 µM), 0.796; in experiment [1] (first compound 0.6325 µM), 1.03; in experiment [1] (first compound 2 µM), 1.01; in experiment [2] (first compound 0.6325 µM), 0.467. The relative viability in experiment [2] (first compound 2 µM) came out at 0.451; in experiment [2] (first compound 6.325 µM) it was 0.234; in experiment [2] (first compound 20 µM) it was 0.199; in experiment [3] (first compound 0.6325 µM), 0.288; in experiment [3] (first compound 2 µM) it was 0.243; in experiment [3] (first compound 6.325 µM), 0.211. For the same cell line, the relative viability in experiment [3] (first compound 20 µM) stood at 0.251; in experiment [4] (first compound 0.1 µM), 0.209; in experiment [4] (first compound 0.3162 µM) it was 0.181; in experiment [4] (first compound 1 µM) it was 0.209; in experiment [4] (first compound 10 µM), 0.224.

On to NCI-H322M, for which the relative viability in experiment [1] (first compound 0.02 µM) worked out at 1.29; in experiment [1] (first compound 0.06325 µM) it was 1.2; in experiment [1] (first compound 0.2 µM), 1.11; in experiment [1] (first compound 0.6325 µM) it was 1.14; in experiment [1] (first compound 2 µM), 1.18; in experiment [2] (first compound 0.6325 µM), 0.734. For the same cell line, the relative viability in experiment [2] (first compound 2 µM) came to 0.886; in experiment [2] (first compound 6.325 µM), 0.732; in experiment [2] (first compound 20 µM) it was 0.32; in experiment [3] (first compound 0.6325 µM), 0.602; in experiment [3] (first compound 2 µM), 0.725; in experiment [3] (first compound 6.325 µM), 0.548. For the same cell line, the relative viability in experiment [3] (first compound 20 µM) amounted to 0.342; in experiment [4] (first compound 0.1 µM), 0.858; in experiment [4] (first compound 0.3162 µM), 0.932; in experiment [4] (first compound 1 µM) it was 0.877; in experiment [4] (first compound 3.162 µM), 0.884; in experiment [4] (first compound 10 µM), 0.727.

As for NCI-H441, the relative viability in experiment [1] (first compound 0.02 µM) was 0.396; in experiment [1] (first compound 0.06325 µM) it was 0.309; in experiment [1] (first compound 0.2 µM), 0.378; in experiment [1] (first compound 0.6325 µM), 0.67; in experiment [1] (first compound 2 µM), 0.929; in experiment [2] (first compound 0.6325 µM) it was 0.443. Besides, the relative viability in experiment [2] (first compound 2 µM) stood at 0.305; in experiment [2] (first compound 6.325 µM), 0.233; in experiment [2] (first compound 20 µM), 0.197; in experiment [3] (first compound 0.6325 µM) it was 0.208; in experiment [3] (first compound 2 µM), 0.166; in experiment [3] (first compound 6.325 µM), 0.227. Besides, the relative viability in experiment [3] (first compound 20 µM) worked out at 0.324; in experiment [4] (first compound 0.1 µM) it was 0.285; in experiment [4] (first compound 0.3162 µM) it was 0.324; in experiment [4] (first compound 1 µM) it was 0.436; in experiment [4] (first compound 3.162 µM), 0.316; in experiment [4] (first compound 10 µM), 0.375.

For NCI-H460, the relative viability stood at 0.908 in experiment [1] (first compound 0.02 µM); 1.08 in experiment [1] (first compound 0.06325 µM); 1.06 in experiment [1] (first compound 0.2 µM); 1.28 in experiment [1] (first compound 0.6325 µM); 1.17 in experiment [1] (first compound 2 µM); 0.193 in experiment [2] (first compound 0.6325 µM). In addition, the relative viability was found to be 0.218 in experiment [2] (first compound 2 µM); 0.0779 in experiment [2] (first compound 6.325 µM); 0.0695 in experiment [2] (first compound 20 µM); 0.353 in experiment [3] (first compound 0.6325 µM); 0.317 in experiment [3] (first compound 2 µM); 0.106 in experiment [3] (first compound 6.325 µM). For the same cell line, the relative viability is 0.0426 in experiment [3] (first compound 20 µM); 0.035 in experiment [4] (first compound 0.1 µM); 0.0298 in experiment [4] (first compound 0.3162 µM); 0.0295 in experiment [4] (first compound 1 µM); 0.0325 in experiment [4] (first compound 3.162 µM); 0.0355 in experiment [4] (first compound 10 µM).

With NCI-H520, the relative viability in experiment [1] (first compound 0.02 µM) is 0.471; in experiment [1] (first compound 0.06325 µM), 0.309; in experiment [1] (first compound 0.2 µM), 0.495; in experiment [1] (first compound 0.6325 µM), 0.565; in experiment [1] (first compound 2 µM), 0.446; in experiment [2] (first compound 0.6325 µM), 0.442. For the same cell line, the relative viability in experiment [2] (first compound 2 µM) came out at 0.394; in experiment [2] (first compound 6.325 µM) it was 0.278; in experiment [2] (first compound 20 µM), 0.162; in experiment [3] (first compound 0.6325 µM), 0.392; in experiment [3] (first compound 2 µM), 0.396; in experiment [3] (first compound 6.325 µM), 0.267. The relative viability was found to be 0.195 in experiment [3] (first compound 20 µM); 0.191 in experiment [4] (first compound 0.1 µM); 0.18 in experiment [4] (first compound 0.3162 µM); 0.257 in experiment [4] (first compound 1 µM); 0.209 in experiment [4] (first compound 3.162 µM); 0.216 in experiment [4] (first compound 10 µM).

Take NCI-H596: the relative viability in experiment [1] (first compound 0.02 µM) worked out at 1.18; in experiment [1] (first compound 0.06325 µM), 0.933; in experiment [1] (first compound 0.2 µM), 0.882; in experiment [1] (first compound 0.6325 µM), 0.941; in experiment [1] (first compound 2 µM), 1.09; in experiment [2] (first compound 0.6325 µM), 0.587. The relative viability came to 0.639 in experiment [2] (first compound 2 µM); 0.728 in experiment [2] (first compound 6.325 µM); 0.737 in experiment [2] (first compound 20 µM); 1.06 in experiment [3] (first compound 0.6325 µM); 0.842 in experiment [3] (first compound 2 µM); 0.85 in experiment [3] (first compound 6.325 µM). In addition, the relative viability in experiment [3] (first compound 20 µM) amounted to 1.49; in experiment [4] (first compound 0.1 µM) it was 0.89; in experiment [4] (first compound 0.3162 µM) it was 1.05; in experiment [4] (first compound 1 µM), 1.06; in experiment [4] (first compound 3.162 µM), 1.12; in experiment [4] (first compound 10 µM), 0.744.

For NCI-H647, the relative viability in experiment [1] (first compound 0.02 µM) is 0.874; in experiment [1] (first compound 0.06325 µM), 0.819; in experiment [1] (first compound 0.2 µM), 1.04; in experiment [1] (first compound 0.6325 µM), 0.934; in experiment [1] (first compound 2 µM), 0.871; in experiment [2] (first compound 0.6325 µM), 0.679. Besides, the relative viability in experiment [2] (first compound 2 µM) came to 0.398; in experiment [2] (first compound 6.325 µM), 0.139; in experiment [2] (first compound 20 µM), 0.0969; in experiment [3] (first compound 0.6325 µM) it was 0.39; in experiment [3] (first compound 2 µM), 0.238; in experiment [3] (first compound 6.325 µM), 0.157. Also, the relative viability in experiment [3] (first compound 20 µM) was 0.159; in experiment [4] (first compound 0.1 µM) it was 0.163; in experiment [4] (first compound 0.3162 µM) it was 0.325; in experiment [4] (first compound 1 µM), 0.236; in experiment [4] (first compound 3.162 µM), 0.123; in experiment [4] (first compound 10 µM), 0.221.
